Laboratory results from US20110251285A1, “COMBINATIONS OF PRESERVATIVES FOR OPHTHALMIC COMPOSITIONS” (ALLERGAN, INC., priority 2010, published 2011).

Test system: S. aureus, P. aeruginosa, c. albicans, E. coli and/or A. niger
Assay: abbreviated preservative efficacy test against USP, EP-A and EP-B criteria
Type: cell-based
Conditions: 20 ppm BAK alone
Procedure: Each of these formulations is tested by performing an abbreviated preservative efficacy test using test organisms S. aureus, P. aeruginosa, c. albicans, E. coli and/or A. niger. The formulations are tested against United States Pharmacopeia Preservative Efficacy Test (USP), European Pharmacopeia Efficacy Test-A (EP-A) and European Pharmacopeia Efficacy Test-B (EP-B) criteria as indicated. Ten (10) ml of each formulation is challenged with approximately 10^5 cfu/ml of test organism. At appropriate time intervals, the amount of bacterial and fungal survivors are assayed using Dey Engley broth (DE) as the neutralizer media. DE, along with filtration, is sufficient at neutralizing the antimicrobial agents in the compositions. One (1) ml of each sample is diluted into nine (9) ml of DE. One (1) ml of the 1:10 dilution is filtered through a 0.45 µm filter and washed with 100 ml of a saline/polysorbate 80 solution. After washing the filtrate a second time with 100 ml of saline/polysorbate 80 solution, the filtrate is placed onto a TSA plate for bacteria and SAB for fungi.

benzalkonium chloride [BAK] was tested, and the “Ph Eur-B & A criteria” value was “failed”.
